# Laboratory results taken from US20230398124A1, “SEVEN-MEMBERED RING COMPOUNDS AND METHOD OF USE THEREOF” (Invea Therapeutics, Inc., priority 2022, published 2023).
# “Also recorded” adds a separate entry of the source.
# Experiments:
# [1] = test system: Mdr2 knock out (Mdr2 KO) mice; conditions: 20 mg/kg i.p., vs untreated Mdr2 KO
# Description: Mdr2 knock out (Mdr2 KO) mice are a genetic mouse model of PSC and display similar phenotypes to human PSC. Collagen content, ductular reaction and inflammation are elevated in Mdr2 knock out mice. Mdr2 KO mice also have enhanced mast cell (MC) presence. Total bile acid (TBA) content increases in Mdr2 knock out mice. Accumulation of chymase and tryptase positive mast cells (MC) in the liver was evaluated by immunohistochemistry.
# (§1) Animal: 10-12 weeks old Mdr2 homozygous knockout (Mdr2 KO) mice were raised on FVB/NJ background. All mice were maintained in a temperature-controlled environment (20° C. to 22° C.) with 12:12-hour light/dark cycles and fed standard chow with access to drinking water ad libitum.
# [2] = test system: Mdr2 knock out (Mdr2 KO) mice; test: liver and serum total bile acid accumulation in Mdr2 KO mice, colorimetric assay; assay type: in vivo, mouse; conditions: 20 mg/kg i.p.
# Description: as §1
# Liver and serum bile acid accumulation was evaluated by using a colorimetric assay from Crystal Chem Inc (cat #80471). For Liver, total bile acid (TBA) was extracted from homogenized liver. For serum, (TBAs) were measured in serum by enzyme immunoassay (EIA). 3-alpha-hydroxysteroid dehydrogenase and Nicotinamide adenine dinucleotide (NAD) converted TBA into 3-keto steroids and NADH. The NADH reacts with nitroblue tetrazolium (NBT) to form a dye and this is measured at 540 nm absorbance.
# [3] = test system: Mdr2 knock out (Mdr2 KO) mice; test: quantitative real time PCR of mast cell, pro-fibrotic and biliary senescence markers in liver of Mdr2 KO mice; assay type: in vivo, mouse; conditions: for Timp2 expression (pro-fibrotic marker): Mdr2 KO = 3.41885191, p<0.0001
# Description: as §1
# Liver inflammation, fibrosis and biliary senescence was evaluated in liver sections by quantitative real time PCR for mast cell markers such as Mcpt1, Fcer1a, Tpsb2 (See FIG. 3) and pro-fibrotic markers such as Col1a1, Timp2 and Tgfb1, (See FIG. 8)_biliary senescence markers such as Cdkn2a, Cdkn2c, Tgfb1 & Gl1bl. (See FIG. 10). Liver tissue was lysed, and total RNA was isolated using trizol and fold change was calculated using ΔΔCt method.
# [4] = test system: Mdr2 knock out (Mdr2 KO) mice; test: liver staining in Mdr2 KO mice: collagen deposition (Fast Green/Sirius Red), hydroxyproline, F4/80, Desmin; assay type: in vivo, mouse; conditions: for portal tract F4/80 immunoreactivity (macrophage marker) / expression of desmin levels (cholangiocyte activation marker): vs untreated Mdr2 KO; for collagen deposition: Fast Green/Sirius Red staining
# Description: Mdr2 knock out (Mdr2 KO) mice are a genetic mouse model of PSC and display similar phenotypes to human PSC. Collagen content, ductular reaction and inflammation are elevated in Mdr2 knock out mice. Mdr2 KO mice also have enhanced mast cell (MC) presence. Total bile acid (TBA) content increases in Mdr2 knock out mice. Accumulation of chymase and tryptase positive mast cells (MC) in the liver was evaluated by immunohistochemistry. Metabolic parameters such as Total Bile Acids (serum and liver), Ductular Reaction (CK-19), Hepatic Fibrosis (Fast Green Sirius Red staining), Collagen deposition, Hydroxyproline levels, Fibrotic Gene Markers, cholangiocyte Activation (Desmin), inflammation and mast cell products, (F4/80, which is a macrophage marker) and Senescence and SASP markers (TGF-β1, p21, p16) are measured to determine the effect of compound 1 in mouse model of hepatobiliary disease.
# as §1
# Fibrosis in liver was evaluated by quantitatively estimating collagen deposition with Fast green and Sirius red staining of formalin fixed paraffin-embedded liver sections ([…]). Hepatic fibrosis and collagen deposition is evaluated by quantitative Fast Green/Sirius Red staining. Macrophage accumulation was determined by staining for F4/80 antibody. (See FIG. 4) Cholangiocyte activation was analyzed by immunofluorescence for Desmin (See FIG. 5) and CK19 (marker for cholangiocytes). (See FIG. 9)
# [5] = test system: DSS-induced colitis C57Bl/6N mice; test: DSS-induced colitis mouse model (body weight loss, occult blood, stool consistency, DAI); assay type: in vivo; conditions: for DAI score: 20 mg/kg i.p. QD day 3 to 9, 0-4 scale, DSS vehicle 3 and above; for body weight loss (score) / occult blood score / rectal bleeding / stool consistency score / diarrhea: i.p. QD day 3 to 9, Compound 1 20 mg/kg, anti-TNF 15 mg/kg, observed 0-10 days
# Description: Animal: For the DSS-induced acute model of experimental colitis, 8-week-old C57Bl/6N mice (weight between 17 and 20 grams, all females from Charles River Laboratories) were used. All mice were maintained in a temperature-controlled environment (20° C.±4° C.) with 12:12-hour light/dark cycles, relative humidity was maintained at 55%±10%, ventilation with 8-10 air changes per hour and fed standard chow with access to drinking water ad libitum.
# Mice were treated with one oral cycles of 2.5% DSS (weight/volume) (DSS, molecular mass, 40 kDa; MP Biomedicals), characterized by 7 days of DSS exposure in drinking water, followed by 3 days of regular drinking water.
# Administration of drugs: 3 days after starting DSS administration, mice were treated with testing drugs up to day 9, according to the experimental groups and the dose regimen described in table below. 0.5% (w/v) Hydroxypropyl cellulose was used as the vehicle.
# From day 0 to 7, the animals received DSS in drinking water and the drugs were administered from day 3 to 9. Body weight and clinical observations such as diarrhea and bleeding from rectum were recorded daily post colitis induction until day 10.
# Disease activity Index (DAI) and body weight loss were measured. Colitis severity was calculated using a disease activity index (DAI) score based on daily evaluation of body weight, stool consistency, and presence of blood in the stools, as determined using Hemoccult SENSA Cards (Beckman Coulter).
# Grading of intestinal inflammation was determined according to the criteria proposed by Cooper et al (Cooper H S et al., Clinicopathologic study of dextran sulfate sodium experimental murine colitis. Lab Invest. 1993 August; 69(2):238-49, the DAI has been determined by scoring changes in variety of factors such as weight loss, stool consistency, and occult bleeding. The weight loss score ranges from 0 to 4, where zero signals no weight loss, score of 1 indicates the presence of 1-5% weight loss, a score of 2 signals the presence of 5-10% weight loss, a score of 3 signals the presence of 10-20% weight loss and a score of 4 represents greater than 20% weight loss. Likewise, the stool consistency score ranges from 0 to 4 with a score of zero representing normal stools, a score of 2 represents loose stools and a score of 4 represents diarrhea. The rectal bleeding is observed by scores ranging from 0 to 4, where a score of zero represents normal or no significant bleeding, a score of 2 indicates the presence of occult bleeding and a score of 4 indicates the presence of gross bleeding. A 5-point (0-4) DAI was obtained by calculating an average of body weight score, stool consistency and rectal bleeding.
smiles,measurement,setting,value
"CCC[C@@H](NC(=O)N1C/C(=N/OCC)NC[C@H](Cc2cc(Cl)ccc2OC)C1=O)c1ccc(C(=O)O)c(N)c1 [Compound 1 monoacetic acid solvate, 2-amino-4-[(1R)-1-({[(3Z,6S)-6-(5-chloro-2-methoxybenzyl)-3-(ethoxyimino)-7-oxo-1,4-diazepan-1-yl]carbonyl}amino)butyl]benzoic acid monoacetic acid solvate]",level of inflammatory marker Tpbs2,[1],significantly reduced
same,level of inflammatory marker mMCP1,[1],significantly reduced
same,Liver total bile acid content,"[2]; Mdr2 KO vehicle = 3.498252, p<0.0001",1.797 µM
same,serum bile acid content,"[2]; Mdr2 KO vehicle = 62.04502, p<0.0001",26.24 µM
same,Tgfb1 expression (pro-fibrotic marker),"[3]; 10 mg/kg i.p., Mdr2 KO = 1.72254177, p=0.0138",1.133 fold change
same,Fcer1 expression (mast cell marker),"[3]; 10 mg/kg i.p., Mdr2 KO = 2.20989385, p=0.0058",1.532 fold change
same,Tpsb2 expression (mast cell marker),"[3]; 10 mg/kg i.p., Mdr2 KO = 2.21107066, p=0.8750",1.53 fold change
same,Mcpt1 expression (mast cell marker),"[3]; 10 mg/kg i.p., Mdr2 KO = 2.33385383, p=0.0237",0.8094 fold change
same,Col1a1 expression (pro-fibrotic marker),"[3]; 10 mg/kg i.p., Mdr2 KO = 3.28243911, p=0.0005",1.509 fold change
same,Timp2 expression (pro-fibrotic marker),[3]; 10 mg/kg i.p.,1.539 fold change
same,Tgfb1 expression (pro-fibrotic marker),"[3]; 20 mg/kg i.p., Mdr2 KO = 1.72254177, p=0.0018",0.8986 fold change
same,Fcer1 expression (mast cell marker),"[3]; 20 mg/kg i.p., Mdr2 KO = 2.20989385, p<0.0001",0.8866 fold change
same,Tpsb2 expression (mast cell marker),"[3]; 20 mg/kg i.p., Mdr2 KO = 2.21107066, p=0.7774",1.341 fold change
same,Mcpt1 expression (mast cell marker),"[3]; 20 mg/kg i.p., Mdr2 KO = 2.33385383, p=0.0178",0.723 fold change
same,Col1a1 expression (pro-fibrotic marker),"[3]; 20 mg/kg i.p., Mdr2 KO = 3.28243911, p<0.0001",0.9248 fold change
same,Timp2 expression (pro-fibrotic marker),[3]; 20 mg/kg i.p.,0.9494 fold change
same,Tgfb1 expression (senescence marker),"[3]; 20 mg/kg i.p., Mdr2 KO = 4.188847, p=0.0002",1.821 fold change
same,Glb1l expression (senescence marker),"[3]; 20 mg/kg i.p., Mdr2 KO = 13.02486, p=0.0001",3.319 fold change
same,Cdkn2c expression (senescence marker),"[3]; 20 mg/kg i.p., Mdr2 KO = 16.05029, p=0.0050",12.66 fold change
same,Cdkn2a expression (senescence marker),"[3]; 20 mg/kg i.p., Mdr2 KO = 21.49752, p<0.0001",3.739 fold change
same,hydroxyproline accumulation,"[4]; 10 mg/kg i.p., Mdr2 KO = 4.871969, p=0.6426",4.219
same,hydroxyproline accumulation,"[4]; 20 mg/kg i.p., Mdr2 KO = 4.871969, p=0.0078",2.972
same,portal tract F4/80 immunoreactivity (macrophage marker),[4]; 20 mg/kg i.p.,decrease
same,collagen deposition,[4],restricted
same,collagen deposition,[4]; listed as compound 1 monoacetic acid solvate,decrease
same,expression of desmin levels (cholangiocyte activation marker),[4],decrease
same,DAI score,[5],decrease
same,body weight loss (score),[5],reduction in the body weight loss; also recorded: decrease
same,occult blood score / rectal bleeding,[5],reduction in bleeding; also recorded: decrease
same,stool consistency score / diarrhea,[5],reduction in diarrhea; also recorded: decrease
"CCC[C@@H](NC(=O)N1C/C(=N/OCC)NC[C@H](Cc2cc(Cl)ccc2OC)C1=O)c1ccc(C(=O)O)c(N)c1 [Compound 1, 2-amino-4-[(1R)-1-({[(3Z,6S)-6-(5-chloro-2-methoxybenzyl)-3-(ethoxyimino)-7-oxo-1,4-diazepan-1-yl]carbonyl}amino)butyl]benzoic acid]",portal tract F4/80 immunoreactivity (macrophage marker),[4]; 20 mg/kg i.p.,reduces
same,expression of desmin levels (cholangiocyte activation marker),[4],reduction
same,colon length reduction,[5]; 20 mg/kg i.p. QD day 3 to 9,significantly inhibits
same,DAI score,[5]; 20 mg/kg,significantly attenuated
same,DAI score,"[5]; listed as compound 1, 20 mg/kg",< 2
same,body weight loss (score),[5],significantly attenuated
same,occult blood score / rectal bleeding,[5],significantly attenuated
same,stool consistency score / diarrhea,[5],significantly attenuated
